Measured values as given in the supplement of paper PMC10307832.

Tests used:
Test in all cases: relative viability (nuclei count vs DMSO), 5 days (fraction); higher = more cells survive
[1] = compound: CC1CC(=O)N(C2=CN=C(N=C2N1C3CCCC3)NC4=C(C=C(C=C4)C(=O)NC5CCN(CC5)C)OC)C [NPK76-II-72-1] + COc1cc2c(Oc3ccc(NC(=O)C4(C(=O)Nc5ccc(F)cc5)CC4)cc3F)ccnc2cc1OCCCN1CCOCC1 [Foretinib] (partner 0.25 µM)
Procedure, shortened: (§1)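 The day after seeding in 1536-well plates, lung cancer cell lines were treated by pin tool with a single drug, or with a fixed anchor-drug dose together with five library-drug doses (not always all listed) in √10 steps. After 5 days, a combined fix-and-stain solution (final 0.05% Triton X-100, 1% formaldehyde, 1 ug/ml Hoechst) was added. Nuclei counted on 4× images gave relative viability as treated counts over vehicle counts, reported as the median of duplicate plates.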

BI-2536 + Pemetrexed = compound: CC[C@@H]1C(=O)N(C)c2cnc(Nc3ccc(C(=O)NC4CCN(C)CC4)cc3OC)nc2N1C1CCCC1 [BI-2536] + Nc1nc2[nH]cc(CCc3ccc(C(=O)N[C@@H](CCC(=O)O)C(=O)O)cc3)c2c(=O)[nH]1 [Pemetrexed] (partner 0.2 µM)
Procedure, shortened: as §1

BI-2536 + OSI-027 = compound: CC[C@@H]1C(=O)N(C)c2cnc(Nc3ccc(C(=O)NC4CCN(C)CC4)cc3OC)nc2N1C1CCCC1 [BI-2536] + COc1cccc2cc(-c3nc([C@H]4CC[C@H](C(=O)O)CC4)n4ncnc(N)c34)[nH]c12 [OSI-027] (partner 0.5 µM)
Procedure, shortened: as §1

BI-2536 + Lapatinib = compound: CC[C@@H]1C(=O)N(C)c2cnc(Nc3ccc(C(=O)NC4CCN(C)CC4)cc3OC)nc2N1C1CCCC1 [BI-2536] + CS(=O)(=O)CCNCc1ccc(-c2ccc3ncnc(Nc4ccc(OCc5cccc(F)c5)c(Cl)c4)c3c2)o1 [Lapatinib] (partner 2 µM)
Procedure, shortened: as §1

With NCI-H647 the relative viability ([1]; first compound 0.01 µM) was 1.12, the relative viability ([1]; first compound 0.03162 µM) was 1.19 and the relative viability ([1]; first compound 0.1 µM) was 1.35. It also gave a relative viability ([1]; first compound 0.3162 µM) of 1.04, a relative viability ([1]; first compound 1 µM) of 1.19 and a relative viability (BI-2536 + Pemetrexed; first compound 0.01 µM) of 0.179. The relative viability (BI-2536 + Pemetrexed; first compound 0.03162 µM) was 0.148, the relative viability (BI-2536 + Pemetrexed; first compound 0.1 µM) was 0.113 and the relative viability (BI-2536 + Pemetrexed; first compound 0.3162 µM) was 0.0907. For the same cell line, the relative viability (BI-2536 + Pemetrexed; first compound 1 µM) was 0.0929, the relative viability (BI-2536 + OSI-027; first compound 0.01 µM) was 0.814 and the relative viability (BI-2536 + OSI-027; first compound 0.03162 µM) was 0.807. It also gave a relative viability (BI-2536 + OSI-027; first compound 0.1 µM) of 0.529, a relative viability (BI-2536 + OSI-027; first compound 0.3162 µM) of 0.0918 and a relative viability (BI-2536 + OSI-027; first compound 1 µM) of 0.0985. For the same cell line, the relative viability (BI-2536 + Lapatinib; first compound 0.01 µM) was 1.11, the relative viability (BI-2536 + Lapatinib; first compound 0.03162 µM) was 0.737 and the relative viability (BI-2536 + Lapatinib; first compound 0.1 µM) was 0.104. The relative viability (BI-2536 + Lapatinib; first compound 0.3162 µM) was 0.0701 and the relative viability (BI-2536 + Lapatinib; first compound 1 µM) was 0.129.
Work on NCI-H650 yielded a relative viability ([1]; first compound 0.01 µM) of 1.01, a relative viability ([1]; first compound 0.03162 µM) of 1.04 and a relative viability ([1]; first compound 0.1 µM) of 0.971. For the same cell line, the relative viability ([1]; first compound 0.3162 µM) was 0.918, the relative viability ([1]; first compound 1 µM) was 1.04 and the relative viability (BI-2536 + Pemetrexed; first compound 0.01 µM) was 0.912. The relative viability (BI-2536 + Pemetrexed; first compound 0.03162 µM) was 1.11, the relative viability (BI-2536 + Pemetrexed; first compound 0.1 µM) was 0.551 and the relative viability (BI-2536 + Pemetrexed; first compound 0.3162 µM) was 0.196. It also gave a relative viability (BI-2536 + Pemetrexed; first compound 1 µM) of 0.139, a relative viability (BI-2536 + OSI-027; first compound 0.01 µM) of 0.551 and a relative viability (BI-2536 + OSI-027; first compound 0.03162 µM) of 0.471. It also gave a relative viability (BI-2536 + OSI-027; first compound 0.1 µM) of 0.351, a relative viability (BI-2536 + OSI-027; first compound 0.3162 µM) of 0.19 and a relative viability (BI-2536 + OSI-027; first compound 1 µM) of 0.144. It also gave a relative viability (BI-2536 + Lapatinib; first compound 0.01 µM) of 0.882, a relative viability (BI-2536 + Lapatinib; first compound 0.03162 µM) of 0.85 and a relative viability (BI-2536 + Lapatinib; first compound 0.1 µM) of 0.166. The relative viability (BI-2536 + Lapatinib; first compound 0.3162 µM) was 0.214 and the relative viability (BI-2536 + Lapatinib; first compound 1 µM) was 0.151.
NCI-H661 gave a relative viability ([1]; first compound 0.01 µM) of 0.997, a relative viability ([1]; first compound 0.03162 µM) of 1.01 and a relative viability ([1]; first compound 0.1 µM) of 1.03. For the same cell line, the relative viability ([1]; first compound 0.3162 µM) was 0.909, the relative viability ([1]; first compound 1 µM) was 1.07 and the relative viability (BI-2536 + Pemetrexed; first compound 0.01 µM) was 0.936. The relative viability (BI-2536 + Pemetrexed; first compound 0.03162 µM) was 0.61, the relative viability (BI-2536 + Pemetrexed; first compound 0.1 µM) was 0.449 and the relative viability (BI-2536 + Pemetrexed; first compound 0.3162 µM) was 0.293. The relative viability (BI-2536 + Pemetrexed; first compound 1 µM) was 0.289, the relative viability (BI-2536 + OSI-027; first compound 0.01 µM) was 0.697 and the relative viability (BI-2536 + OSI-027; first compound 0.03162 µM) was 0.379. It also gave a relative viability (BI-2536 + OSI-027; first compound 0.1 µM) of 0.35, a relative viability (BI-2536 + OSI-027; first compound 0.3162 µM) of 0.208 and a relative viability (BI-2536 + OSI-027; first compound 1 µM) of 0.209. For the same cell line, the relative viability (BI-2536 + Lapatinib; first compound 0.01 µM) was 0.498, the relative viability (BI-2536 + Lapatinib; first compound 0.03162 µM) was 0.543 and the relative viability (BI-2536 + Lapatinib; first compound 0.1 µM) was 0.398. The relative viability (BI-2536 + Lapatinib; first compound 0.3162 µM) was 0.224 and the relative viability (BI-2536 + Lapatinib; first compound 1 µM) was 0.179.
NCI-H838 gave a relative viability ([1]; first compound 0.01 µM) of 0.956, a relative viability ([1]; first compound 0.03162 µM) of 0.99 and a relative viability ([1]; first compound 0.1 µM) of 1.1. It also gave a relative viability ([1]; first compound 0.3162 µM) of 0.949, a relative viability ([1]; first compound 1 µM) of 1.09 and a relative viability (BI-2536 + Pemetrexed; first compound 0.01 µM) of 0.241. The relative viability (BI-2536 + Pemetrexed; first compound 0.03162 µM) was 0.239, the relative viability (BI-2536 + Pemetrexed; first compound 0.1 µM) was 0.183 and the relative viability (BI-2536 + Pemetrexed; first compound 0.3162 µM) was 0.12. For the same cell line, the relative viability (BI-2536 + Pemetrexed; first compound 1 µM) was 0.119, the relative viability (BI-2536 + OSI-027; first compound 0.01 µM) was 0.386 and the relative viability (BI-2536 + OSI-027; first compound 0.03162 µM) was 0.444. The relative viability (BI-2536 + OSI-027; first compound 0.1 µM) was 0.393, the relative viability (BI-2536 + OSI-027; first compound 0.3162 µM) was 0.146 and the relative viability (BI-2536 + OSI-027; first compound 1 µM) was 0.149. The relative viability (BI-2536 + Lapatinib; first compound 0.01 µM) was 1.04, the relative viability (BI-2536 + Lapatinib; first compound 0.03162 µM) was 0.877 and the relative viability (BI-2536 + Lapatinib; first compound 0.1 µM) was 0.155. The relative viability (BI-2536 + Lapatinib; first compound 0.3162 µM) was 0.101 and the relative viability (BI-2536 + Lapatinib; first compound 1 µM) was 0.133.
In the case of NCI-H1355, the relative viability ([1]; first compound 0.01 µM) is reported as 0.929, the relative viability ([1]; first compound 0.03162 µM) is reported as 0.932 and the relative viability ([1]; first compound 0.1 µM) is reported as 0.926. It also gave a relative viability ([1]; first compound 0.3162 µM) of 0.852, a relative viability ([1]; first compound 1 µM) of 0.982 and a relative viability (BI-2536 + Pemetrexed; first compound 0.01 µM) of 1.04. It also gave a relative viability (BI-2536 + Pemetrexed; first compound 0.03162 µM) of 1, a relative viability (BI-2536 + Pemetrexed; first compound 0.1 µM) of 0.899 and a relative viability (BI-2536 + Pemetrexed; first compound 0.3162 µM) of 0.211. For the same cell line, the relative viability (BI-2536 + Pemetrexed; first compound 1 µM) was 0.174, the relative viability (BI-2536 + OSI-027; first compound 0.01 µM) was 0.421 and the relative viability (BI-2536 + OSI-027; first compound 0.03162 µM) was 0.389. For the same cell line, the relative viability (BI-2536 + OSI-027; first compound 0.1 µM) was 0.206, the relative viability (BI-2536 + OSI-027; first compound 0.3162 µM) was 0.176 and the relative viability (BI-2536 + OSI-027; first compound 1 µM) was 0.189. For the same cell line, the relative viability (BI-2536 + Lapatinib; first compound 0.01 µM) was 0.996, the relative viability (BI-2536 + Lapatinib; first compound 0.03162 µM) was 0.976 and the relative viability (BI-2536 + Lapatinib; first compound 0.1 µM) was 0.62. It also gave a relative viability (BI-2536 + Lapatinib; first compound 0.3162 µM) of 0.194 and a relative viability (BI-2536 + Lapatinib; first compound 1 µM) of 0.183.
In the case of NCI-H1395, the relative viability ([1]; first compound 0.01 µM) is reported as 1.02, the relative viability ([1]; first compound 0.03162 µM) is reported as 0.959 and the relative viability ([1]; first compound 0.1 µM) is reported as 0.954. For the same cell line, the relative viability ([1]; first compound 0.3162 µM) was 1.1, the relative viability ([1]; first compound 1 µM) was 0.95 and the relative viability (BI-2536 + Pemetrexed; first compound 0.01 µM) was 0.73. The relative viability (BI-2536 + Pemetrexed; first compound 0.03162 µM) was 0.643, the relative viability (BI-2536 + Pemetrexed; first compound 0.1 µM) was 0.34 and the relative viability (BI-2536 + Pemetrexed; first compound 0.3162 µM) was 0.323. It also gave a relative viability (BI-2536 + Pemetrexed; first compound 1 µM) of 0.402, a relative viability (BI-2536 + OSI-027; first compound 0.01 µM) of 0.617 and a relative viability (BI-2536 + OSI-027; first compound 0.03162 µM) of 0.64. The relative viability (BI-2536 + OSI-027; first compound 0.1 µM) was 0.313, the relative viability (BI-2536 + OSI-027; first compound 0.3162 µM) was 0.306 and the relative viability (BI-2536 + OSI-027; first compound 1 µM) was 0.386. The relative viability (BI-2536 + Lapatinib; first compound 0.01 µM) was 0.868, the relative viability (BI-2536 + Lapatinib; first compound 0.03162 µM) was 0.905 and the relative viability (BI-2536 + Lapatinib; first compound 0.1 µM) was 0.415. The relative viability (BI-2536 + Lapatinib; first compound 0.3162 µM) was 0.353 and the relative viability (BI-2536 + Lapatinib; first compound 1 µM) was 0.733.
In the case of NCI-H1437, the relative viability ([1]; first compound 0.01 µM) is reported as 1.22, the relative viability ([1]; first compound 0.03162 µM) is reported as 1.27 and the relative viability ([1]; first compound 0.1 µM) is reported as 1.15. For the same cell line, the relative viability ([1]; first compound 0.3162 µM) was 1.11, the relative viability ([1]; first compound 1 µM) was 1.25 and the relative viability (BI-2536 + Pemetrexed; first compound 0.01 µM) was 0.321. The relative viability (BI-2536 + Pemetrexed; first compound 0.03162 µM) was 0.288, the relative viability (BI-2536 + Pemetrexed; first compound 0.1 µM) was 0.267 and the relative viability (BI-2536 + Pemetrexed; first compound 0.3162 µM) was 0.227. It also gave a relative viability (BI-2536 + Pemetrexed; first compound 1 µM) of 0.212, a relative viability (BI-2536 + OSI-027; first compound 0.01 µM) of 0.857 and a relative viability (BI-2536 + OSI-027; first compound 0.03162 µM) of 0.925. It also gave a relative viability (BI-2536 + OSI-027; first compound 0.1 µM) of 0.398, a relative viability (BI-2536 + OSI-027; first compound 0.3162 µM) of 0.172 and a relative viability (BI-2536 + OSI-027; first compound 1 µM) of 0.149. It also gave a relative viability (BI-2536 + Lapatinib; first compound 0.01 µM) of 0.784, a relative viability (BI-2536 + Lapatinib; first compound 0.03162 µM) of 0.718 and a relative viability (BI-2536 + Lapatinib; first compound 0.1 µM) of 0.237. For the same cell line, the relative viability (BI-2536 + Lapatinib; first compound 0.3162 µM) was 0.116 and the relative viability (BI-2536 + Lapatinib; first compound 1 µM) was 0.122.
